Like-named read-outs stand apart in the source and are kept apart here.
Legend:
Abcg4 [1] = test: In situ brain perfusion (ISBP): brain uptake clearance of tritiated tracers at the luminal BBB, WT and Abcg4-KO mice
Procedure: (§1) The function of Abcg4 at the mouse BBB was evaluated by using the in situ brain perfusion (ISBP) technique. This method was developed to study drug transport processes occurring at the luminal side of the BCECs[40],[41] and can be used to measure transport parameters, including the brain volume of distribution and the brain uptake clearance (Clup) of a target molecule over very short periods (30–120 s). The resulting Clup integrates the effect of enhancing or limiting factors introduced by the transporters located at the luminal side of BCECs. This method allows for measurement of the initial brain uptake of molecules, which results from both the influx and the efflux mechanisms involved in their transport. One of the advantages of this technique is the ability to administer inhibitors, or to use transporter deficient mice, in order to modulate function at the luminal side of the BBB.
(§2) Mice were anesthetized by intra-peritoneal injection of a mixture of ketamine and xylazine at 140:8 mg/kg. The right common carotid artery was ligated on the heart side and the right external carotid artery was ligated at the level of the bifurcation. A catheter was inserted into the right common carotid artery. The perfusion liquid was contained in a syringe placed in an infusion pump and connected to the catheter. Before the perfusion, the thorax of the animal was opened, the heart was removed and perfusion started immediately at flow of 2.5 mL/min. The perfusion fluid was Krebs bicarbonate-buffered physiological saline (128 mM NaCl, 24 mM NaHCO3, 4.2 mM KCl, 2.4 NaH2PO4, 1.5 mM CaCl2, 0.9 mM MgCl2 and 9 mM D-glucose).The solution was gassed with 95% O2−5% CO2 to bring the pH to 7.40 and warmed to 37 °C in water bath. Each mouse was perfused for 60 s with [^3H]Aβ1–40 (0.2 µCi/mL) or [^3H]desmosterol (0.2 µCi/mL). [^14C]sucrose was used as a vascular marker of the physical integrity of the BBB and co-perfused with the tritiated substrate. The brain uptake of tritiated tracers was also measured in the presence of unlabeled substrates [probucol 10 µM, desmosterol 20 µM orT4 10 µM], dissolved in their respective vehicles [DMSO ( < 0.5% in final perfusion fluid) or H2O/NaOH]. The experiment was terminated by decapitating the mouse. The right cerebral hemisphere and aliquots of the perfusion fluid were sampled in tared vials, weighted, digested in 2 mL of Solvable® solubilizer (PerkinElmer, Courtaboeuf, France) at 50 °C and mixed with 9 mL of Ultima Gold XR® scintillation cocktail (PerkinElmer). Labeled compounds were counted on a Tri-Carb® (PerkinElmer) counter with the appropriate dual (^14C/^3H) quenching curves and standards to measure disintegration per minute (dpm) in samples.
(§3) The brain uptake clearance (Clup, µL/g) is the ratio between the apparent tissue distribution volume (Vbrain, µL/g) of [^3H]Aβ1–40 or [^3H]desmosterol and the perfusion time (s). The Vbrain was calculated from the amount of radioactivity in the right brain hemisphere using the following equation: Vbrain=Xbrain/Cperf where Xbrain (dpm/g) is the calculated amount of tritiated tracer in the right cerebral parenchyma and Cperf (dpm/µL) is the concentration of tritiated tracer in the perfusion fluid. Xbrain is obtained by this equation: Xbrain=Xtot−(Vvasc×Cperf) where Xtot (dpm/g) is the total amount of tritiated tracer measured in the brain tissue sample (vascular and extravascular).

Abcg4 [2] = target: T1, Abcg4 (Mus musculus, UniProt Q91WA9); test: as above; details: WT mice, 60 s perfusion
Procedure: as §1, §2, §3

Abcg4 [3] = target: T1, Abcg4; test: Abcg4-mediated Aβ transport/efflux in HEK-Abcg4 transfected cells; format: cell-based; details: data not shown
Excerpt: Abcg4 monomers come together to form a homodimer that includes nearly identical binding clefts which are opposite one another on the dimer surface. The homology model is an approximation of the dimer structure frozen in time which fails to capture the dynamic nature of protein motions. In vivo it is likely that nucleotide binding changes the overall configuration of the dimer to allow for sterol binding on one side of the complex followed by translocation of sterol to the dimer core before being exported from the membrane. One consequence of this movement could be that only one sterol-binding site exists at a given time. Thus, sterol binding would alternate from one binding site to the other as sterols are translocated. This mechanism could explain why the homology model has a single sterol-binding site despite the presence of two nearly identical binding clefts. […] Abcg4 seems to have two Aβ binding sites which agrees with our previous data that percent efflux of Aβ was greater than cholesterol[18] and with our current data that desmosterol competes with Aβ efflux. Furthermore, we previously measured, in HEK-Abcg4 transfected cells, the velocity of Aβ transport by Abcg4 as a function of [^3H]Aβ1-40 concentrations. […]

Abcg4 [4] = target: T1, Abcg4; set-up: Wild-type C57BL/6 and Abcg4-KO mice had free access to standard laboratory food and water; from tissue; host or cells: brain capillary endothelial cells of living C57BL/6 mice (in situ brain perfusion); details: HEK-Abcg4 transfected cells; cited from earlier work
Excerpt: We had shown previously that a probucol- and T4-sensitive transporter, different from Abca1, Abcb1 and Abcg2, restricted the brain entry of [^3H]Aβ1-40 through the mouse BBB[18],[43].

Abcb1 and Abcg2 = details: brain efflux index (BEI) method; cited from earlier work
[5] = mouse, in vivo
Procedure: Mice were anesthetized by intra-peritoneal injection of a mixture of ketamine and xylazine at 140:8 mg/kg. The right common carotid artery was ligated on the heart side and the right external carotid artery was ligated at the level of the bifurcation. A catheter was inserted into the right common carotid artery. The perfusion liquid was contained in a syringe placed in an infusion pump and connected to the catheter. Before the perfusion, the thorax of the animal was opened, the heart was removed and perfusion started immediately at flow of 2.5 mL/min. […] The brain uptake of tritiated tracers was also measured in the presence of unlabeled substrates [probucol 10 µM, desmosterol 20 µM orT4 10 µM], dissolved in their respective vehicles [DMSO ( < 0.5% in final perfusion fluid) or H2O/NaOH]. […] Labeled compounds were counted on a Tri-Carb® (PerkinElmer) counter with the appropriate dual (^14C/^3H) quenching curves and standards to measure disintegration per minute (dpm) in samples.
The brain uptake clearance (Clup, µL/g) is the ratio between the apparent tissue distribution volume (Vbrain, µL/g) of [^3H]Aβ1–40 or [^3H]desmosterol and the perfusion time (s). […] Xbrain is obtained by this equation: Xbrain=Xtot−(Vvasc×Cperf) where Xtot (dpm/g) is the total amount of tritiated tracer measured in the brain tissue sample (vascular and extravascular).

Abcb1 = system: Abcb1; set-up: method as in PMID 11181832; details: read-out: Km of Aβ reported for Abcb1; cited from earlier work
Abcg4 [6] = details: mouse, in vivo
Procedure: as §1, §2, §3

[7] = Abcg4-KO mice, T4 10 µM, 60 s perfusion, 5–8 mice
[8] = T4 10 µM in perfusion buffer, means of 5–8 mice
[9] = Abcg4-KO mice, probucol 10 µM, 60 s perfusion, 8–9 mice

T1 sequence (Q91WA9 whole entry, the tested form may be a part): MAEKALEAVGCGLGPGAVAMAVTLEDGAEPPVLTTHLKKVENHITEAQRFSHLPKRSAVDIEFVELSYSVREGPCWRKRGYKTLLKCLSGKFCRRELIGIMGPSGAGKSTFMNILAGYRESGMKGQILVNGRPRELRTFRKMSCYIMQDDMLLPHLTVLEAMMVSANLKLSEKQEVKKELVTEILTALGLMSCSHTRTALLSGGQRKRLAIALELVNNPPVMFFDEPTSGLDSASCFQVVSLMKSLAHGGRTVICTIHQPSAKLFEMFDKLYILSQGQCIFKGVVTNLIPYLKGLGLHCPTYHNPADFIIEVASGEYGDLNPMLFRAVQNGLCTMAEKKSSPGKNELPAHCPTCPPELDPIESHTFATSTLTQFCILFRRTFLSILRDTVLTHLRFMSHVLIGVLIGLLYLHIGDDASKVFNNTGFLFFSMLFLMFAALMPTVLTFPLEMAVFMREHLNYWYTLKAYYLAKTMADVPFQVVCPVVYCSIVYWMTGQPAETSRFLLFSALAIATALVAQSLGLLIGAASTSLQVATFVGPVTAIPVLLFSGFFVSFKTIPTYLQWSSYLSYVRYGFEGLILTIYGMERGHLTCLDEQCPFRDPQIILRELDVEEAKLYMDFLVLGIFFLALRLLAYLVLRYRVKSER

Compound: N[C@@H](Cc1cc(I)c(Oc2cc(I)c(O)c(I)c2)c(I)c1)C(=O)O [T4, L-thyroxine]
- Effect of T4 on [3H]Aβ1–40 Clup (Abcg4 [1]; [7]): this effect was lost
- Effect of T4 on [3H]desmosterol Clup (Abcg4 [1]; [7]): this effect was lost
- Increase of [3H]Aβ1–40 Clup in the presence vs absence of T4 (ER T4/ctrl) (Abcg4 [2]; [8]): 2 fold
- Increase of [3H]desmosterol Clup in the presence vs absence of T4 (ER T4/ctrl) (Abcg4 [2]; [8]): 1.8 fold
- Inhibition of Abcg4-mediated Aβ efflux (Abcg4 [3]): 5.8 fold

Compound: CC(C)=CCC[C@@H](C)[C@H]1CC[C@H]2[C@@H]3CC=C4C[C@@H](O)CC[C@]4(C)[C@H]3CC[C@]12C [desmosterol]
- Effect of desmosterol on [3H]Aβ1-40 Clup (Abcg4 [1]; Abcg4-KO mice, desmosterol 20 µM, 60 s perfusion, 5–7 mice): no significant effect
- Time course of brain volume of distribution (Vbrain) as a function of perfusion time (Abcg4 [1]; WT C57BL/6 mice, right hemisphere, in situ brain perfusion, 3 animals per data point, r2 = 0.944): linear increase
- Brain uptake clearance (Clup) in Abcg4-KO mice compared with WT mice (Abcg4 [1]; in situ brain perfusion, 60 s, tracer 0.2 µCi/mL, absence of probucol, 8–9 mice, two-way ANOVA, Bonferroni): not significantly different
- Increase of [3H]Aβ1-40 Clup in the presence vs absence of desmosterol (ER desmosterol/ctrl) (Abcg4 [2]; desmosterol 20 µM in perfusion buffer, means of 5–7 mice): 1.8 fold

Compound: CC(C)(Sc1cc(C(C)(C)C)c(O)c(C(C)(C)C)c1)Sc1cc(C(C)(C)C)c(O)c(C(C)(C)C)c1 [probucol]
- Effect of probucol on [3H]Aβ1–40 Clup (Abcg4 [1]; [9]): this effect was lost
- Effect of probucol on [3H]desmosterol Clup (Abcg4 [1]; [9]): this effect was lost
- Increase of [3H]desmosterol Clup in the presence vs absence of probucol (ER probucol/ctrl) (Abcg4 [2]; probucol 10 µM in perfusion fluid, [3H]desmosterol 0.2 µCi/mL, Krebs bicarbonate pH 7.40, 37 °C, means of 8–9 mice): 1.8 fold
- Increase of [3H]Aβ1–40 Clup in the presence vs absence of probucol (ER probucol/ctrl) (Abcg4 [2]; probucol 10 µM, [3H]Aβ1–40 0.2 µCi/mL, pH 7.40, 37 °C, means of 8–9 mice): 2.1 fold
- Inhibition of Abcg4-mediated Aβ efflux (Abcg4 [4]): 2 fold

Compound: CNC(=O)c1cc(Oc2ccc(NC(=O)Nc3ccc(Cl)c(C(F)(F)F)c3)cc2)ccn1 [sorafenib]
- Brain clearance in Mdr1a/b−/− mice compared with WT mice (Abcb1 and Abcg2): the same
- Decrease of brain clearance in Abcb1/Abcg2-deficient mice (Abcb1 and Abcg2): 2.5 fold
- Decrease of brain clearance in Abcg2-deficient mice (Abcb1 and Abcg2): 2 fold

Compound: OC[C@H]1O[C@@](CO)(O[C@H]2O[C@H](CO)[C@@H](O)[C@H](O)[C@H]2O)[C@@H](O)[C@@H]1O [sucrose]
- Brain vascular volume (Vvasc), distribution volume of [14C]sucrose [5]: under 20 µL/g

Compound: Aβ1–40: amyloid-β peptide, 40 amino-acid form, used tritiated as transport tracer
- Km (Abcb1): 12.5 µM
- Brain uptake clearance (Clup) in Abcg4-KO mice compared with WT mice (Abcg4 [6]): not significantly different

From PMC5645361, “Expression and function of Abcg4 in the mouse blood-brain barrier: role in restricting the brain entry of amyloid-β peptide” (Scientific Reports, 2017)
